Patent US7598382B2, “Aryl substituted imidazoquinolines” (Coley Pharmaceutical Group, Inc., priority 2002, dated 2009)

| melting point [°C] | SMILES |
| --- | --- |
| 228 to 230 | CCCCc1nc2c(N)nc3cc(-c4cccnc4)ccc3c2n1CCNC(=O)C(C)C [Example 390, N-{2-[4-Amino-2-butyl-7-(pyridin-3-yl)-1H-imidazo[4,5-c]quinolin-1-yl]ethyl}-2-methylpropanamide] |
| 240 to 241 | CCCCc1nc2c(N)nc3cc(-c4cccnc4)ccc3c2n1CCNC(=O)NC(C)C [Example 392, N-{2-[4-Amino-2-butyl-7-(pyridin-3-yl)-1H-imidazo[4,5-c]quinolin-1-yl]ethyl}-N′-(1-methylethyl)urea] |
| 290 to 292 | CCCCc1nc2c(N)nc3cc(-c4cccnc4)ccc3c2n1CCN1CCCS1(=O)=O [Example 393, 1-[2-(1,1-Dioxo-1-isothiazolidin-2-yl)ethyl]-2-butyl-7-(pyridin-3-yl)-1H-imidazo[4,5-c]quinolin-4-amine] |
| 173 to 175 | CCOc1ccccc1-c1ccc2c(c1)nc(N)c1nc(COC)n(CC(C)(C)O)c12 [Example 394, 1-[4-Amino-7-(2-ethoxyphenyl)-2-methoxymethyl-1H-imidazo[4,5-c]quinolin-1-yl]-2-methylpropan-2-ol] |
| 220 to 220.5 | COCc1nc2c(N)nc3cc(-c4cncnc4)ccc3c2n1CC(C)(C)O [Example 395, 1-[4-Amino-2-methoxymethyl-7-(pyrimidin-5-yl)-1H-imidazo[4,5-c]quinolin-1-yl]-2-methylpropan-2-ol] |
| 225 to 225.5 | COCc1nc2c(N)nc3cc(-c4cccnc4)ccc3c2n1CC(C)(C)O [Example 396, 1-[4-Amino-2-methoxymethyl-7-(pyridin-3-yl)-1H-imidazo[4,5-c]quinolin-1-yl]-2-methylpropan-2-ol] |
| 241 to 242 | COCc1nc2c(N)nc3cc(-c4cnc(OC)nc4)ccc3c2n1CC(C)(C)O [Example 397, 1-[4-Amino-2-methoxymethyl-7-(2-methoxypyrimidin-5-yl)-1H-imidazo[4,5-c]quinolin-1-yl]-2-methylpropan-2-ol] |
| 190 to 190.5 | COCc1nc2c(N)nc3cc(-c4ccc(OC)nc4)ccc3c2n1CC(C)(C)O [Example 398, 1-[4-Amino-2-methoxymethyl-7-(6-methoxypyridin-3-yl)-1H-imidazo[4,5-c]quinolin-1-yl]-2-methylpropan-2-ol] |
| 220.5 to 222 | COCc1nc2c(N)nc3cc(-c4cnccc4OC)ccc3c2n1CC(C)(C)O [Example 399, 1-[4-Amino-2-methoxymethyl-7-(4-methoxypyridin-3-yl)-1H-imidazo[4,5-c]quinolin-1-yl]-2-methylpropan-2-ol] |
| 234 to 236 | COCc1nc2c(N)nc3cc(-c4cncc(OC)c4)ccc3c2n1CC(C)(C)O [Example 400, 1-[4-Amino-2-methoxymethyl-7-(5-methoxypyridin-3-yl)-1H-imidazo[4,5-c]quinolin-1-yl]-2-methylpropan-2-ol] |
| 229 to 231 | CCc1nc2c(N)nc3cc(-c4cccnc4)ccc3c2n1CC1CCN(C(=O)OC(C)(C)C)CC1 [Example 404, tert-Butyl 4-{[4-amino-2-ethyl-7-(pyridin-3-yl)-1H-imidazo[4,5-c]quinolin-1-yl]methyl}piperidine-1-carboxylate] |
| 209 to 211 | CCCc1nc2c(N)nc3cc(-c4cccnc4)ccc3c2n1CC1CCN(C(=O)OC(C)(C)C)CC1 [Example 409, tert-Butyl 4-{[4-amino-2-propyl-7-(pyridin-3-yl)-1H-imidazo[4,5-c]quinolin-1-yl]methyl}piperidine-1-carboxylate] |
| 248 to 249 | CCCc1nc2c(N)nc3cc(-c4cccnc4)ccc3c2n1CC1CCN(C(=O)C(C)C)CC1 [Example 412, 1-{4-[4-Amino-2-propyl-7-(pyridin-3-yl)-1H-imidazo[4,5-c]quinolin-1-ylmethyl]piperidin-1-yl}-2-methylpropan-1-one] |
| 208 to 211 | CCOCc1nc2c(N)nc3cc(-c4cccnc4)ccc3c2n1CCN1CCNCC1 [Example 414, 2-Ethoxymethyl-1-(2-piperazin-1-ylethyl)-7-(pyridin-3-yl)-1H-imidazo[4,5-c]quinolin-4-amine] |
| 238.5 to 241 | CCCc1nc2c(N)nc3cc(-c4cccnc4)ccc3c2n1CC(C)(C)O [Example 418, 1-[4-Amino-2-propyl-7-(pyridin-3-yl)-1H-imidazo[4,5-c]quinolin-1-yl]-2-methylpropan-2-ol] |
| 225 to 226 | CCCc1nc2c(N)nc3cc(-c4cncc(CO)c4)ccc3c2n1CC(C)(C)O [Example 420, 1-[4-Amino-7-(5-hydroxymethylpyridin-3-yl)-2-propyl-1H-imidazo[4,5-c]quinolin-1-yl]-2-methylpropan-2-ol] |
| 221 to 224 | CC(C)Cn1cnc2c(N)nc3ccc(CCc4ccncc4)cc3c21 [Example 425, 1-(2-Methylpropyl)-8-(2-pyridin-4-ylethyl)-1H-imidazo[4,5-c]quinolin-4-amine] |
| 176 to 177 | CC(C)Cn1cnc2c(N)nc3ccc(CCCCc4ccccc4)cc3c21 [Example 426, 1-(2-Methylpropyl)-8-(4-phenylbutyl)-1H-imidazo[4,5-c]quinolin-4-amine] |
| 257 to 258 | CC(C)Cn1cnc2c(N)nc3cc(C=Cc4ccccc4)ccc3c21 [Example 427, 1-(2-Methylpropyl)-7-styryl-1H-imidazo[4,5-c]quinolin-4-amine] |

| melting point [°C] | SMILES |
| --- | --- |
| 125 | CC(C)Cn1cnc2c(N)nc3cc(-c4cccnc4)ccc3c21 [Example 428, 1-(2-Methylpropyl)-7-(pyridin-3-yl)-1H-imidazo[4,5-c]quinolin-4-amine] |
| 210 to 211 | CC(C)Cn1cnc2c(N)nc3cc(-c4cncc(CO)c4)ccc3c21 [Example 429, 1-(2-Methylpropyl)-7-(5-hydroxymethylpyridin-3-yl)-1H-imidazo[4,5-c]quinolin-4-amine] |
| 172 to 173 | CC(C)Cn1cnc2c(N)nc3cc(CCc4ccccc4)ccc3c21 [Example 430, 1-(2-Methylpropyl)-7-phenethyl-1H-imidazo[4,5-c]quinolin-4-amine] |
| 228 to 229 | CC(C)(O)Cn1cnc2c(N)nc3cc(Cc4ccccc4)ccc3c21 [Example 431, 1-(4-Amino-7-benzyl-1H-imidazo[4,5-c]quinolin-1-yl)-2-methylpropan-2-ol] |
| 256 to 257 | CC(C)(O)Cn1cnc2c(N)nc3ccc(Cc4ccccc4)cc3c21 [Example 434, 1-(4-Amino-8-benzyl-1H-imidazo[4,5-c]quinolin-1-yl)-2-methylpropan-2-ol] |
| 191 to 192 | CCCc1nc2c(N)nc3ccc(Cc4ccccc4)cc3c2n1CC(C)(C)O [Example 435, 1-(4-Amino-8-benzyl-2-propyl-1H-imidazo[4,5-c]quinolin-1-yl)-2-methylpropan-2-ol] |
| 209 to 210 | CCOCc1nc2c(N)nc3ccc(Cc4ccccc4)cc3c2n1CC(C)(C)O [Example 436, 1-(4-Amino-8-benzyl-2-ethoxymethyl-1H-imidazo[4,5-c]quinolin-1-yl)-2-methylpropan-2-ol] |
| 146 to 148 | CCOCc1nc2c(N)nc3cc(-c4cccnc4)ccc3c2n1CC1CCCCC1 [Example 438, 1-Cyclohexylmethyl-2-ethoxymethyl-7-(pyridin-3-yl)-1H-imidazo[4,5-c]quinolin-4-amine] |
| 240 to 241 | CCOCc1nc2c(N)nc3cc(-c4cncc(CO)c4)ccc3c2n1CC1CCCCC1 [Example 439, 1-Cyclohexylmethyl-2-ethoxymethyl-7-(5-hydroxymethylpyridin-3-yl)-1H-imidazo[4,5-c]quinolin-4-amine] |
| > 250 | CCCc1nc2c(N)nc3cc(/C=C/c4cccc(S(N)(=O)=O)c4)ccc3c2n1CC(C)C [Example 440, (E)-3-{2-[4-Amino-1-(2-methylpropyl)-2-propyl-1H-imidazo[4,5-c]quinolin-7-yl]vinyl}benzenesulfonamide] |
| 210 to 212 | CCCc1nc2c(N)nc3cc(/C=C/c4ccc5sc(C)nc5c4)ccc3c2n1CC(C)C [Example 441, (E)-7-[2-(2-Methylbenzothiazol-5-yl)vinyl]-1-(2-methylpropyl)-2-propyl-1H-imidazo[4,5-c]quinolin-4-amine] |
| 182 to 185 | CCCc1nc2c(N)nc3cc(/C=C/c4ccc(C)s4)ccc3c2n1CC(C)C [Example 442, (E)-1-(2-Methylpropyl)-7-[2-(5-methylthiophen-2-yl)vinyl]-2-propyl-1H-imidazo[4,5-c]quinolin-4-amine] |
| 181 to 183 | CCCc1nc2c(N)nc3cc(/C=C/c4cccc(OC)c4)ccc3c2n1CC(C)C [Example 443, (E)-7-[2-(3-Methoxyphenyl)vinyl]-1-(2-methylpropyl)-2-propyl-1H-imidazo[4,5-c]quinolin-4-amine] |
| 201 to 202 | CCCc1nc2c(N)nc3cc(/C=C/c4ccc(OC)cc4)ccc3c2n1CC(C)C [Example 444, (E)-7-[2-(4-Methoxyphenyl)vinyl]-1-(2-methylpropyl)-2-propyl-1H-imidazo[4,5-c]quinolin-4-amine] |
| 214 to 216 | CCCc1nc2c(N)nc3cc(/C=C/c4ccccc4OC)ccc3c2n1CC(C)C [Example 445, (E)-7-[2-(2-Methoxyphenyl)vinyl]-1-(2-methylpropyl)-2-propyl-1H-imidazo[4,5-c]quinolin-4-amine] |
| 250 to 251 | CCCc1nc2c(N)nc3cc(CCc4cccc(S(N)(=O)=O)c4)ccc3c2n1CC(C)C [Example 456, 3-{2-[4-Amino-1-(2-methylpropyl)-2-propyl-1H-imidazo[4,5-c]quinolin-7-yl]ethyl}benzenesulfonamide] |
| 155 to 157 | CCCc1nc2c(N)nc3cc(CCc4cccc(OC)c4)ccc3c2n1CC(C)C [Example 458, 7-[2-(3-Methoxyphenyl)ethyl]-1-(2-methylpropyl)-2-propyl-1H-imidazo[4,5-c]quinolin-4-amine] |
| 150 to 152 | CCCc1nc2c(N)nc3cc(CCc4ccc(C)s4)ccc3c2n1CC(C)C [Example 461, 1-(2-Methylpropyl)-7-[2-(5-methylthiophen-2-yl)ethyl]-2-propyl-1H-imidazo[4,5-c]quinolin-4-amine] |
